The values below come from patent US10287269B2, “Pyrazolyl pyrimidinone compounds as PDE2 inhibitors” (Merck Sharp & Dohme Corp., priority 2015, dated 2019).

As usually defined, the Ki is the dissociation constant of the complex between target and ligand, obtained from inhibition or displacement.

The first assay has as its target T1, Rhesus PDE2A3 (Macaca mulatta, UniProt B3VTJ2).
T1 construct: made in house; host or cells: AD293 cells, transient transfection, pcDNA3.3-TOPO; lysate supernatant used as enzyme
T1 sequence (B3VTJ2 1-941): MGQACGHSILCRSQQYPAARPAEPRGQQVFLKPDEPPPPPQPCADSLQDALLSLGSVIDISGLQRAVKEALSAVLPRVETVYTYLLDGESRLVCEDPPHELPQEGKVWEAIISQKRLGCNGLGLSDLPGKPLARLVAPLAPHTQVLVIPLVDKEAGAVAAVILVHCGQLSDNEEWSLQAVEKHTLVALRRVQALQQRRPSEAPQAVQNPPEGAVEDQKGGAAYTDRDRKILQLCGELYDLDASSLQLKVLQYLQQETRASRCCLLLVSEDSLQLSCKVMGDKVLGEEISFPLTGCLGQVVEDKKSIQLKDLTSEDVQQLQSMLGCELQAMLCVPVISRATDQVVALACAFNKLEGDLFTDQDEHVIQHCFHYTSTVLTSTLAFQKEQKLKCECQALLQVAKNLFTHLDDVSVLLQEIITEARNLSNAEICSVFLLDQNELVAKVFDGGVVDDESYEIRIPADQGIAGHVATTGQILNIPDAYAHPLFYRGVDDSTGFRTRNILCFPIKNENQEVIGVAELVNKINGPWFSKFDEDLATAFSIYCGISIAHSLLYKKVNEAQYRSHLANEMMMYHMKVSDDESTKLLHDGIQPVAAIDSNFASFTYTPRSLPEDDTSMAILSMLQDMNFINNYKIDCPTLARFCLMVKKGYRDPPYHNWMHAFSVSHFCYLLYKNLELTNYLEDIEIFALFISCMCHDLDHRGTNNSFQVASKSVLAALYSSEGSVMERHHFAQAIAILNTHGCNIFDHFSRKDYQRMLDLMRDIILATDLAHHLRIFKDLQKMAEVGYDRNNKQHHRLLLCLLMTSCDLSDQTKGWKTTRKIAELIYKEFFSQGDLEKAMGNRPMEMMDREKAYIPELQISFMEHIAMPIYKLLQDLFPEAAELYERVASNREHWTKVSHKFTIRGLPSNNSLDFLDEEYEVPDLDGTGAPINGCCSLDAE
As to the kind of experiment: PDE2 fluorescence polarization (IMAP FP) inhibition assay, rhesus enzyme. As to conditions: Lab A; read-out: Rhesus PDE2 Ki (nM) Lab A. In kind it is biochemical, rhesus macaque. Here is the method:
The activity of the compounds in accordance with the present invention as PDE2 inhibitors may be readily determined using a fluorescence polarization (FP) methodology (Huang, W., et al., J. Biomol Screen, 2002, 7: 215).
In a typical experiment the PDE2 inhibitory activity of the compounds of the present invention was determined in accordance with the following experimental method. Rhesus PDE2A3 was amplified from rhesus macaque brain cDNA (Biochain Institute, Hayward, Calif.) using primers based on human PDE2A sequence (accession NM_002599.3) where the forward primer containing a Kozak consensus was 5′-[…]-3′ and the reverse primer was 5′-[…]-3′. Amplification with Easy-A High-Fidelity PCR cloning enzyme (Stratagene, La Jolla, Calif.) was 95° C. for 2 minutes followed by thirty three cycles of 95° C. for 40 seconds, 52° C. for 30 seconds, and 72° C. for 2 minutes 48 seconds. Final extension was 72° C. for 7 minutes. The PCR product was TA cloned into pcDNA3.3-TOPO (Invitrogen, Carlsbad, Calif.) according to standard protocol. A consensus sequence was developed from multiple clones and then deposited into GenBank (EU812167). AD293 cells (Stratagene, La Jolla, Calif.) with 70-80% confluency were transiently transfected with rhesus PDE2A3/pcDNA3.3-TOPO using Lipofectamine 2000 according to manufacturer specifications (Invitrogen, Carlsbad, Calif.). Cells were harvested 48 hours post-transfection and lysed by sonication (setting 3, 10×5 sec pulses) in a buffer containing 20 mM HEPES pH 7.4, 1 mM EDTA and Complete Protease Inhibitor Cocktail Tablets (Roche, Indianapolis, Ind.). Lysate was collected by centrifugation at 75,000×g for 20 minutes at 4° C. and supernatant utilized for evaluation of PDE2 activity. The fluorescence polarization assay for cyclic nucleotide phosphodiesterases was performed using an IMAP® FP kit supplied by Molecular Devices, Sunnyvale, Calif. (product # R8139). […] Assays were performed at room temperature in 384-well microtiter plates with an incubation volume of 20.2 μL. Solutions of test compounds were prepared in DMSO and serially diluted with DMSO to yield 8 μL of each of 10 solutions differing by 3-fold in concentration, at 32 serial dilutions per plate. […] 0% of inhibition is determined by using DMSO (1% final concentrations).
A Labcyte Echo 555 (Labcyte, Sunnyvale, Calif.) is used to dispense 200 nL from each well of the titration plate to the 384 well assay plate. Ten microliters of a solution of enzyme (1/2000 final dilution from aliquots; sufficient to produce 20% substrate conversion) was added to the assay plate. Next 10 uL of a separate solution of the substrate FAM-labeled cAMP (50 nM final concentration product # R7506 from Molecular Devices) and the activator cGMP (1 uM final concentration), prepared in the assay buffer (10 mM Tris HCl, pH 7.2, 10 mM MgCl2, 0.05% NaN3 0.01% Tween-20, and 1 mM DTT) was added to the assay plate and shaken to mix. The reaction is allowed to proceed at room temperature for 60 minutes. A binding solution is then made from the kit components, comprised of 80% Solution A, 20% Solution B and binding reagent at a volume of 1/600 the total binding solution. The enzymatic reaction is stopped by addition of 60 μl, of the binding solution to each well of the assay plates and the plates are sealed and shaken for 30 seconds. The plate was incubated at room temperature for at least one hour prior to determining the fluorescence polarization (FP). The parallel and perpendicular fluorescence of each well of the plate was measured using a Tecan Genios Pro plate reader (Tecan, Switzerland) or Perkin Elmer EnVision™ plate reader (Waltham, Mass.). Fluorescence polarization (mP) was calculated from the parallel (S) and perpendicular (P) fluorescence of each sample well and the analogous values for the median control well, containing only substrate (So and Po), using the following equation: Polarization (mP)=1000*(S/So−P/Po)/(S/So+P/Po).
As for `CCc1ccc(C(C)n2cc(-c3cc(=O)[nH]c(C)n3)cn2)c(F)c1` (single isomer, unassigned) [Example 102, (S)- or (R)-6-(1-(1-(4-ethyl-2-fluorophenyl)ethyl)-1H-pyrazol-4-yl)-2-methylpyrimidin-4(3H)-one], the Ki came out at 212 nM.

On to `Cc1nc(-n2cc(CN3CCC(C(F)(F)F)CC3)cn2)cc(=O)[nH]1` [Example 32, 2-Methyl-6-(4-((4-(trifluoromethyl)piperidin-1-yl)methyl)-1H-pyrazol-1-yl)pyrimidin-4(3H)-one], for which the Ki turned out to be 19300 nM. Still for that read-out and setting: in the case of `Cc1nc(-c2cnn(C(C)c3ccc(OC(F)F)cc3F)c2)cc(=O)[nH]1` (single isomer, unassigned) [Example 87, (R)- or (S)-6-(1-(1-(4-(difluoromethoxy)-2-fluorophenyl)ethyl)-1H-pyrazol-4-yl)-2-methylpyrimidin-4(3H)-one] it was 480 nM. As for `Cc1ccc(C(C)n2cc(-c3cc(=O)[nH]c(C)n3)cn2)c(F)c1` (single isomer, unassigned) [Example 150, (R)- or (S)-6-(1-(1-(2-fluoro-4-methylphenyl)ethyl)-1H-pyrazol-4-yl)-2-methylpyrimidin-4(3H)-one], the Ki worked out at 695 nM. Regarding `Cc1nc(-c2cnn(C(C)c3ccc(C(F)(F)F)cc3C(F)(F)F)c2)cc(=O)[nH]1` (single isomer, unassigned) [Example 145, (S)- or (R)-6-(1-(1-(2,4-bis(trifluoromethyl)phenyl)ethyl)-1H-pyrazol-4-yl)-2-methylpyrimidin-4(3H)-one], the Ki turned out to be 6810 nM. `COCc1ccc(C(C)n2cc(-c3cc(=O)[nH]c(C)n3)cn2)c(Cl)c1` (single isomer, unassigned) [Example 104, (S)- or (R)-6-(1-(1-(2-chloro-4-(methoxymethyl)phenyl)ethyl)-1H-pyrazol-4-yl)-2-methylpyrimidin-4(3H)-one]: the Ki was greater than 2970 nM.

Take `Cc1nc(-c2cnn(C(C)c3ccc(OC(F)F)cc3C)c2)cc(=O)[nH]1` (single isomer, unassigned) [Example 89, (R)- or (S)-6-(1-(1-(4-(difluoromethoxy)-2-methylphenyl)ethyl)-1H-pyrazol-4-yl)-2-methylpyrimidin-4(3H)-one]: the Ki was found to be 1840 nM. Same read-out and setting: in the case of `Cc1ccc(C(C)n2cc(-c3cc(=O)[nH]c(C)n3)cn2)c(F)c1` (single isomer, unassigned) [Example 151, (S)- or (R)-6-(1-(1-(2-fluoro-4-methylphenyl)ethyl)-1H-pyrazol-4-yl)-2-methylpyrimidin-4(3H)-one] it was 218 nM. As for `Cc1nc(-c2cnn(C(C)c3ccc(C(F)(F)F)cc3C(F)(F)F)c2)cc(=O)[nH]1` (single isomer, unassigned) [Example 144, (R)- or (S)-6-(1-(1-(2,4-bis(trifluoromethyl)phenyl)ethyl)-1H-pyrazol-4-yl)-2-methylpyrimidin-4(3H)-one], the Ki turned out to be 397 nM.

The same assay, now with this note: Lab B; read-out: Rhesus PDE2 Ki (nM) Lab B.
For the compound `Cc1ccc(C(C)n2ccc(-c3cc(=O)[nH]c(C)n3)n2)cc1` (stereo not drawn) [Example 157, 2-methyl-6-(1-(1-(p-tolyl)ethyl)-1H-pyrazol-3-yl)pyrimidin-4(3H)-one], the Ki stood at 48700 nM. On the same count and under the same terms, the value for `Cc1nc(-c2cnn(C(C)c3ccc(OC(F)(F)F)cc3F)c2)cc(=O)[nH]1` (single isomer, unassigned) [Example 58, (R)- or (S)-6-(1-(1-(2-fluoro-4-(trifluoromethoxy)phenyl)ethyl)-1H-pyrazol-4-yl)-2-methylpyrimidin-4(3H)-one] was 256 nM; that for `Cc1nc(-c2cnn(C(C)c3ccc(OC(F)(F)F)cc3)c2)cc(=O)[nH]1` (single isomer, unassigned) [Example 128, (S)- or (R)-2-methyl-6-(1-(1-(4-(trifluoromethoxy)phenyl)ethyl)-1H-pyrazol-4-yl)pyrimidin-4(3H)-one] was 588 nM; that for `Cc1nc(-c2ccnn2C(C)c2ccc(OC(F)(F)F)cc2)cc(=O)[nH]1` (stereo not drawn) [Example 76, 2-methyl-6-(1-(1-(4-(trifluoromethoxy)phenyl)ethyl)-1H-pyrazol-5-yl)pyrimidin-4(3H)-one] was 15900 nM. The same measure, in the same setting: the value for `Cc1nc(-n2cc(CN3CCC(C(F)(F)F)CC3)cn2)cc(=O)[nH]1` [Example 32, 2-Methyl-6-(4-((4-(trifluoromethyl)piperidin-1-yl)methyl)-1H-pyrazol-1-yl)pyrimidin-4(3H)-one] was 49300 nM; that for `Cc1nc(-c2cc([C@@H](C)c3ccc(C(F)(F)F)cc3)n(C)n2)cc(=O)[nH]1` (single isomer, unassigned) [Example 26] was 1140 nM. Same read-out and setting: in the case of `Cc1nc(-n2cc(C(C)c3ccc(C(F)(F)F)c(F)c3)cn2)cc(=O)[nH]1` (single isomer, unassigned) [Example 51, (S)- or (R)-6-(4-(1-(3-fluoro-4-(trifluoromethyl)phenyl)ethyl)-1H-pyrazol-1-yl)-2-methylpyrimidin-4(3H)-one] it was greater than 1000 nM. `Cc1nc(-n2cc(C(C)c3ccc(C(C)(C)C)cc3)cn2)cc(=O)[nH]1` (stereo not drawn) [Example 45, 6-(4-(1-(4-(tert-butyl)phenyl)ethyl)-1H-pyrazol-1-yl)-2-methylpyrimidin-4(3H)-one]: the Ki worked out at 411 nM.

For the compound `Cc1nc(-n2cc(C(C)c3ccc(C4CCC4)cc3)cn2)cc(=O)[nH]1` (stereo not drawn) [Example 38, 6-(4-(1-(4-cyclobutylphenyl)ethyl)-1H-pyrazol-1-yl)-2-methylpyrimidin-4(3H)-one], the Ki was determined as 303 nM. The same measure, in the same setting: in the case of `COCCc1ccc(C(C)c2cnn(-c3cc(=O)[nH]c(C)n3)c2)cc1` (stereo not drawn) [Example 41, 6-(4-(1-(4-(2-methoxyethyl)phenyl)ethyl)-1H-pyrazol-1-yl)-2-methylpyrimidin-4(3H)-one] it was 7300 nM; in that of `Cc1nc(-c2cnn(C(C)c3cccc(C(F)(F)F)c3)c2)cc(=O)[nH]1` (stereo not drawn) [Example 73, 2-methyl-6-(1-(1-(3-(trifluoromethyl)phenyl)ethyl)-1H-pyrazol-4-yl)pyrimidin-4(3H)-one], 6380 nM; in that of `Cc1nc(-c2ccn(C(C)c3ccccc3)n2)cc(=O)[nH]1` (stereo not drawn) [Example 158, 2-methyl-6-(1-(1-phenylethyl)-1H-pyrazol-3-yl)pyrimidin-4(3H)-one], 18500 nM.
